Assay [1] deals with Histamine H1 receptor (Homo sapiens) (UniProt P35367). As to conditions: Compound concentration 10.0 uM.
Assay [2] addresses Ribosomal protein S6 kinase alpha-2 (Homo sapiens, UniProt Q15349). As to conditions: Compound concentration 1000.0 nM.
Assay [3] is filed under the species Rattus norvegicus. The note with it: Compound concentration 10.0 uM.
The target in assay [4] is BDNF/NT-3 growth factors receptor (Homo sapiens) (UniProt Q16620). The note with it: Compound concentration 1000.0 nM.
Assay [5] concerns the target Tyrosine-protein kinase Srms (Homo sapiens) (UniProt Q9H3Y6). The note with it: Compound concentration 1000.0 nM.
Assay [6] addresses 5-hydroxytryptamine receptor 5A (Homo sapiens) (UniProt P47898). The note with it: Compound concentration 10.0 uM.
Assay [7] has as its target T1, Serine/threonine-protein kinase haspin (Homo sapiens) (UniProt Q8TF76).
T1 sequence (whole entry): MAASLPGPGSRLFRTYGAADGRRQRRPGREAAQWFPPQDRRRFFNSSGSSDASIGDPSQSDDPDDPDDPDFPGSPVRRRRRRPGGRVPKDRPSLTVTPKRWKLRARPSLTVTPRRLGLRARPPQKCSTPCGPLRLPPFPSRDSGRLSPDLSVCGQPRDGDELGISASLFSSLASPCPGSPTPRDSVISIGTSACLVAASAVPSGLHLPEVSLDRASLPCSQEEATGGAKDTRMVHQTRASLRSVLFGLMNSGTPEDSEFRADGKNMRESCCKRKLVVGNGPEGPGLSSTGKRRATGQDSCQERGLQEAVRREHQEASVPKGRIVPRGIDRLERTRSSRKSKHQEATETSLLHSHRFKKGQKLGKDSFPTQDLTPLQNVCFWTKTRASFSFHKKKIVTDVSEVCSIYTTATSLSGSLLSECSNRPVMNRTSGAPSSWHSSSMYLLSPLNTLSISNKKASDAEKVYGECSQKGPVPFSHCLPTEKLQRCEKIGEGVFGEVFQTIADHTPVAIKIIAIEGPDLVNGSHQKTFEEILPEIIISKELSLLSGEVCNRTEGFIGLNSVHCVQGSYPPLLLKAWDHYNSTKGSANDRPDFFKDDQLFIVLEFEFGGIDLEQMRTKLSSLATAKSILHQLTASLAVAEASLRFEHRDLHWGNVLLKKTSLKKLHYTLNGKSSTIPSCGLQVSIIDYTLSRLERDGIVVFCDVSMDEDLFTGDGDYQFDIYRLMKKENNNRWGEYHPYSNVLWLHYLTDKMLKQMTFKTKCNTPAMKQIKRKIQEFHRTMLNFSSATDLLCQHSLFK
The note with it: Compound concentration 1000.0 nM.

The target in assay [8] is Cyclin-dependent kinase 13 (Homo sapiens) (UniProt Q14004). As to conditions: Compound concentration 1000.0 nM.
For assay [9], the target named is High affinity nerve growth factor receptor (Homo sapiens) (UniProt P04629). The note with it: Compound concentration 1000.0 nM.
Assay [10] deals with T2, Serine/threonine-protein kinase Nek2 (Homo sapiens) (UniProt P51955).
T2 sequence (whole entry): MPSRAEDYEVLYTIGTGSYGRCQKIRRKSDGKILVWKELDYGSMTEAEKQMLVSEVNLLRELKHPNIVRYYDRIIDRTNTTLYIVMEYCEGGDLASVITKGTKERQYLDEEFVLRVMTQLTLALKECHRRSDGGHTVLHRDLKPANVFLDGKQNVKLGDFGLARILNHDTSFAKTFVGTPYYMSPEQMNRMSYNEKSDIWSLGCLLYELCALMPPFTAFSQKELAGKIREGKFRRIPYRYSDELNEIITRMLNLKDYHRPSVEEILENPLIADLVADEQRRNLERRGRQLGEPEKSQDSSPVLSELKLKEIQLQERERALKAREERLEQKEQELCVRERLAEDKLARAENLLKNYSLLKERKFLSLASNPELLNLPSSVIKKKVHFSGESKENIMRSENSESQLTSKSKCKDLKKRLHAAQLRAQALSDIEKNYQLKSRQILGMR
The note with it: Compound concentration 1000.0 nM.

The target of assay [11] is T3, Serine/threonine-protein kinase Sgk3 (Homo sapiens) (UniProt Q96BR1).
T3 sequence (whole entry): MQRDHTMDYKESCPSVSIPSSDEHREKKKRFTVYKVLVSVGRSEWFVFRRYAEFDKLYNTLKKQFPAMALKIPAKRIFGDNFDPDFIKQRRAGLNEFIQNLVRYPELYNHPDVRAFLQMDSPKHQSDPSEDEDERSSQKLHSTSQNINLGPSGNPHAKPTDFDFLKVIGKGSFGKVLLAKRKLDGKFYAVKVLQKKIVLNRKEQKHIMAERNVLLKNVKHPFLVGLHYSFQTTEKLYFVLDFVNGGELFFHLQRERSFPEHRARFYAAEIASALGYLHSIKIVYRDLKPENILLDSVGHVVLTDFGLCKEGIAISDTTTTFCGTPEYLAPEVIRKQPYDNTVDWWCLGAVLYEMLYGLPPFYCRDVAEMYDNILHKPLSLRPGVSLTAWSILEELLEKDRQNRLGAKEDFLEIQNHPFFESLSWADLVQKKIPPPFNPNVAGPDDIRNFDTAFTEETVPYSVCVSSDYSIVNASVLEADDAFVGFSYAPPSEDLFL
The note with it: Compound concentration 1000.0 nM.

Inhibition and residual activity data for two molecules are collected here from ChEMBL document CHEMBL4507319 (2021).

Cyclin-dependent kinase 13 (Homo sapiens), sequence (Q14004 whole entry, looked up): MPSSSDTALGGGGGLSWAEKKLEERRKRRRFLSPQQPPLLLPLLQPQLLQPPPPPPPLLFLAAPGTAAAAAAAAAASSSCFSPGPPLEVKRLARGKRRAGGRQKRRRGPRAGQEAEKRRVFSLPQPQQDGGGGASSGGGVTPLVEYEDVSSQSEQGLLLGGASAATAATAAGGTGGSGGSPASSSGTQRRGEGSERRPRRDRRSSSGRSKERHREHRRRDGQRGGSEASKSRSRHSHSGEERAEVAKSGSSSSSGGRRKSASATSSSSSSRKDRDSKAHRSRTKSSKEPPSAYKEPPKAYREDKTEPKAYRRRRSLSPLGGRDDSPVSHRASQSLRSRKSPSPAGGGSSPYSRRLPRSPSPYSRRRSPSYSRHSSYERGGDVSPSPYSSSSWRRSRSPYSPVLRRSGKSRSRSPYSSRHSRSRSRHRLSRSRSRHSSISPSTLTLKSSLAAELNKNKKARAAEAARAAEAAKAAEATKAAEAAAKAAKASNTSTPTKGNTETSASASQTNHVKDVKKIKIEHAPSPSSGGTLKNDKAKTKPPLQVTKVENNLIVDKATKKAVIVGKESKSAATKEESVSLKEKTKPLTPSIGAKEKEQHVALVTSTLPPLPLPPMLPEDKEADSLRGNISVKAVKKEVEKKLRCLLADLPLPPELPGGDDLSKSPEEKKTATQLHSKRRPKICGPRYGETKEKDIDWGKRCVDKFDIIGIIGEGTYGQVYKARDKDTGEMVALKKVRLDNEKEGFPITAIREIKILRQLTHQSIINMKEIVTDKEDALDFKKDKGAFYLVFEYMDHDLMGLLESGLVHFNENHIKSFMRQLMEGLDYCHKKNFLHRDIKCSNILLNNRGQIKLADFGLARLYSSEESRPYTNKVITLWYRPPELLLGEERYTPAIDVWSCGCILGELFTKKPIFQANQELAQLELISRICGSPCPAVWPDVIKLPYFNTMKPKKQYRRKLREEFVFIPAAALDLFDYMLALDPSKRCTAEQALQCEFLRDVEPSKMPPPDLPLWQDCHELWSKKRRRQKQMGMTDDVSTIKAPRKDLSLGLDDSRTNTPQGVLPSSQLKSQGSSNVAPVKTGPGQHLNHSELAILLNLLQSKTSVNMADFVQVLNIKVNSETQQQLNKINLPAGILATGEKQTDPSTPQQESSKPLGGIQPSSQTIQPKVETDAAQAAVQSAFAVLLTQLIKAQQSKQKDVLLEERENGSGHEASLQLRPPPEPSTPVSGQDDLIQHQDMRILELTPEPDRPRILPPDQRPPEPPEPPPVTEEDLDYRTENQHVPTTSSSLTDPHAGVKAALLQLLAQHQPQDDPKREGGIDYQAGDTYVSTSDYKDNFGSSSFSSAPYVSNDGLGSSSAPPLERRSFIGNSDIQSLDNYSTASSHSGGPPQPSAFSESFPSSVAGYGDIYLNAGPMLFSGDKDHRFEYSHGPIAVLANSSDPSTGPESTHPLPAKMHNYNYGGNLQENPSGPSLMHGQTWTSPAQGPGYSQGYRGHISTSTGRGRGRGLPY
BDNF/NT-3 growth factors receptor (Homo sapiens), sequence (Q16620 32-822 limits assumed): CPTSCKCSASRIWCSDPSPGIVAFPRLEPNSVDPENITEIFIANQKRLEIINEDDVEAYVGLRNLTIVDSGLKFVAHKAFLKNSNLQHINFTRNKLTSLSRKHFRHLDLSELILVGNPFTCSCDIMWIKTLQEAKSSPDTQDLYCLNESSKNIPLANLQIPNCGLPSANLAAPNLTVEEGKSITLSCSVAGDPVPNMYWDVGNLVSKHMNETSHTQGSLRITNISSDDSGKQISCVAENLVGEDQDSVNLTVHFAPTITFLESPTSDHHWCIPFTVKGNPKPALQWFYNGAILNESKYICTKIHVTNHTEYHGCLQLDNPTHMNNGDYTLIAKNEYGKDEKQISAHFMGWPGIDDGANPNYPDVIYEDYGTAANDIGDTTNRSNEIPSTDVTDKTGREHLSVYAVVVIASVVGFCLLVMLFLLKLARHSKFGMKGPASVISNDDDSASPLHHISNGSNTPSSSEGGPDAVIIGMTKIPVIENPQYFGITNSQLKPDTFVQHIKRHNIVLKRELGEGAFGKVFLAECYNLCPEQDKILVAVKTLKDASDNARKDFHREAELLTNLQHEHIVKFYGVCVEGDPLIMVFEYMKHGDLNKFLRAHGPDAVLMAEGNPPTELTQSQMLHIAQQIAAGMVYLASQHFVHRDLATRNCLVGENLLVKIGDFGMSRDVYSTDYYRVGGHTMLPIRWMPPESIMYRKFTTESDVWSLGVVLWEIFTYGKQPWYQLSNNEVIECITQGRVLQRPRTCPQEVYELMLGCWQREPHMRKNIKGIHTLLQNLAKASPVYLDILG
Histamine H1 receptor (Homo sapiens), sequence (P35367 whole entry): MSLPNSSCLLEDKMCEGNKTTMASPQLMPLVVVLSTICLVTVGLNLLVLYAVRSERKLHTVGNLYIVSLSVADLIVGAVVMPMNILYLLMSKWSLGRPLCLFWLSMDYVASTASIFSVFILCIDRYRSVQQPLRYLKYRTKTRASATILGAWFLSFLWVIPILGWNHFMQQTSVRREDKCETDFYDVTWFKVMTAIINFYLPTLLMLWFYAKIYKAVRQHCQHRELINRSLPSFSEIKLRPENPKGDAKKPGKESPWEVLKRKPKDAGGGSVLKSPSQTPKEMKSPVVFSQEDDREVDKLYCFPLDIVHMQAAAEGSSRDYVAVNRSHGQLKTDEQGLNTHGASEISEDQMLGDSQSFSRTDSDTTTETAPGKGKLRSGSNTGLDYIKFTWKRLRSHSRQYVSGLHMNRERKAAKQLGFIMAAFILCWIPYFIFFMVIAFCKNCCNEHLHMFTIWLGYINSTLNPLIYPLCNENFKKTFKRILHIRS
Tyrosine-protein kinase Srms (Homo sapiens), sequence (Q9H3Y6 whole entry): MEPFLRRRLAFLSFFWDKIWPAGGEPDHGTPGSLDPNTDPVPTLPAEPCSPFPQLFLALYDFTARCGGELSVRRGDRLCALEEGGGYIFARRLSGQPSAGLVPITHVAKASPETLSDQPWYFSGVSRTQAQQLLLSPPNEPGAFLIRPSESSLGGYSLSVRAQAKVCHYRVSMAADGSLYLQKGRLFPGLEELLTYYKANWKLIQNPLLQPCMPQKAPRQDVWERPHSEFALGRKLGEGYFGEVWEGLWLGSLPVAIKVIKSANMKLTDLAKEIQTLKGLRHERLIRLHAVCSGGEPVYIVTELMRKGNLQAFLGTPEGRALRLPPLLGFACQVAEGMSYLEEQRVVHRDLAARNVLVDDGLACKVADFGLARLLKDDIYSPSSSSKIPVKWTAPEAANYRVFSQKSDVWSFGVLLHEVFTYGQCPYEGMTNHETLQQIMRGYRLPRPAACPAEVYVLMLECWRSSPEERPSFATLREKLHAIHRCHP
Ribosomal protein S6 kinase alpha-2, sequence (Q15349 whole entry): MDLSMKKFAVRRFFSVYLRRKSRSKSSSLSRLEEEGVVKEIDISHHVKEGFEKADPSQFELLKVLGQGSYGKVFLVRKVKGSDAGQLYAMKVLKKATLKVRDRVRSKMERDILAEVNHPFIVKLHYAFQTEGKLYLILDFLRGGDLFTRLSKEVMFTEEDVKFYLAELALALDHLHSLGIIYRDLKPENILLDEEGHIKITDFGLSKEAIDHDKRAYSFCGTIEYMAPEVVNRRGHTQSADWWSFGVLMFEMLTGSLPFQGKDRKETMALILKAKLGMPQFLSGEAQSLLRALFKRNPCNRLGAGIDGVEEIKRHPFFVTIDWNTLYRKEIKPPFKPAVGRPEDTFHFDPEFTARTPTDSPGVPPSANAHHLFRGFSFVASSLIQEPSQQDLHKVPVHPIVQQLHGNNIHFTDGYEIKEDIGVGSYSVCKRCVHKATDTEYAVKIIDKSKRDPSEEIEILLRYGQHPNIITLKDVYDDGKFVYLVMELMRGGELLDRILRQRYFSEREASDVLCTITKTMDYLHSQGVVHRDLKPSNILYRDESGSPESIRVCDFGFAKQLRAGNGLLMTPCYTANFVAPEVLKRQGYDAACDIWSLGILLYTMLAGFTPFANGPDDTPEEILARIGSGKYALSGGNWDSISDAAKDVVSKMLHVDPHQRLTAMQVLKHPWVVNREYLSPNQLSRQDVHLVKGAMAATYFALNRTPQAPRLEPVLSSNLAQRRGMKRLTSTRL
5-hydroxytryptamine receptor 5A (Homo sapiens), sequence (P47898 whole entry): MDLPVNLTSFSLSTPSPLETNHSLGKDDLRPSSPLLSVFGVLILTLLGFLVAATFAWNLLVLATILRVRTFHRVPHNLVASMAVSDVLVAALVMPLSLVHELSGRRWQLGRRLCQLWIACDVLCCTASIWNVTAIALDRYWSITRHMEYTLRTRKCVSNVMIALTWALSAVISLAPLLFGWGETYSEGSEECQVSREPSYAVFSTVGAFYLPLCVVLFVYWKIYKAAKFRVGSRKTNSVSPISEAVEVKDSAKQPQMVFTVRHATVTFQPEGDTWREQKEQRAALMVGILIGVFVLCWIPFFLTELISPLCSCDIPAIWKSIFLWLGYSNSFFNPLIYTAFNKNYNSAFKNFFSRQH

For orientation: inhibition means the change of the read-out against control, counted positive when it falls. As usually defined, the residual activity is what remains of the control signal, in per cent. As for `CCc1ccccc1C(=O)Nc1n[nH]c2c(C)c(F)c(C3C(C#N)=C(C)N(C)C(C)=C3C#N)cc12` [BAY-3827], the figures for the inhibition in assay [1], in assay [3] and in assay [6] were 6.23%, 85.6% and 19.9%, respectively. In addition, the residual activity in assay [2] was 0%; in [4], 100%; in assay [5], 94%; in assay [7] it was 100%; in assay [8], 100%; in assay [9] it was 97%. Moreover, the results for the residual activity in assay [10] and in [11] were 87% and 91%, respectively.
For the molecule `CC1=C(C#N)C(c2ccc3c(c2)c(NC(=O)c2ccccc2C)nn3C)C(C#N)=C(C)N1` [BAY-974], the inhibition in [1] is 0.94%; in assay [3], 96.3%; in [6], 0.04%. Besides, the residual activity in assay [2] was 83%; in assay [4], 72%; in assay [5] it was 57%; in [7], 71%; in assay [8], 87%; in assay [9], 77%. Further, the residual activity in [10] was 100%; in assay [11] it was 95%.
